Test results as given in US20150144845A1, “SOLVENT OR SOLVENT COMPOSITION FOR ORGANIC TRANSISTOR PRODUCTION” (DAICEL CORPORATION, priority 2012, published 2015).
Read-outs that look alike come from different tables or passages of the source.

Key:
[1] = Visual solubility of pentacene in solvent for organic transistor production
Protocol: (§1) The resulting mixture was heated in a nitrogen atmosphere under a light-shielding condition at 100° C. for about 6 hours, preparing a composition for organic transistor production. With respect to the resulting composition for organic transistor production, the solubility of the organic semiconductor material was observed. Herein, the solubility was visually evaluated, and a case where no insoluble material was observed was rated as “∘: dissolution”, and a case where an insoluble material was observed was rated as “x: not dissolution”. The same shall apply hereafter.

[2] = Visual solubility of Rubrene in solvent for organic transistor production; assay type: physicochemical; settings: summary of Examples, 100° C.
Protocol: as §1
Rubrene (compound represented by formula (2-1)) (produced by Tokyo Chemical Industry Co., Ltd.) was used as an organic semiconductor material, and each solvent for organic transistor production shown in Table 2 was used under an environment of 20° C., providing a mixture including the organic semiconductor material in a concentration of 4.00% by weight to 5.00% by weight. The resulting mixture was heated in a nitrogen atmosphere under a light-shielding condition at 100° C. for about 2 hours, preparing a composition for organic transistor production. With respect to the resulting composition for organic transistor production, the solubility of the organic semiconductor material was observed.

[3] = Visual solubility of DPh-BTBT in solvent for organic transistor production
Protocol: as §1
(§2) The resulting mixture was heated in a nitrogen atmosphere under a light-shielding condition at 100° C. for about 2 hours, preparing a composition for organic transistor production. With respect to the resulting composition for organic transistor production, the solubility of the organic semiconductor material was observed.

[4] = Visual solubility of DNTT in solvent for organic transistor production
Protocol: as §1, §2

solubility of pentacene in the solvent compared with tetralin and 1,2,4-trichlorobenzene [1]	solubility of Rubrene in the solvent compared with tetralin and 1,2,4-trichlorobenzene [2]	solubility of DPh-BTBT in the solvent compared with tetralin and 1,2,4-trichlorobenzene [3]	solubility of DNTT in the solvent compared with tetralin and 1,2,4-trichlorobenzene [4]	solubility of pentacene in the solvent compared with tetralin and 1,2,4-trichlorobenzene ([1]; summary of Examples, 100° C.)	solubility of DPh-BTBT in the solvent compared with tetralin and 1,2,4-trichlorobenzene ([3]; summary of Examples, 100° C.)	solubility of DNTT in the solvent compared with tetralin and 1,2,4-trichlorobenzene ([4]; summary of Examples, 100° C.)	SMILES
better	excellent	better	better	–	–	–	CN1CCN(C)C1=O [1,3-dimethyl-2-imidazolidinone]
–	excellent	–	–	better	better	better	CN1CCCN(C)C1=O [1,3-dimethyl-3,4,5,6-tetrahydro-2(1H)-pyrimidinone]
